Measurements taken from patent US20050069544A1, “Pharmaceutical composition and a method of treatment” (priority 1998, published 2005).
“Also recorded” adds a separate entry of the source.

Experiments:
Type in all cases: cell-based, human
[1] = tested on: T-cells from AIHA patients; assay: Cell proliferation assay of PBMC/T-cells from autoimmune haemolytic anaemia patients; details: for proliferative T-cell response to RhD peptides: AIHA patients, FIG. 17A; for proliferative T-cell response to ce peptides: RhD-negative AIHA subjects, FIG. 17B
Method: (§1) PBMC were cultured in 100 μl volumes in microtitre plates at a concentration of 1.25×10^6 cells/ml in an Alpha Modification of Eagle's Medium (ICN Flow, Bucks UK) supplemented with 5% autologous serum, 4 mM L-Glutamine (Gibco, Paisley, UK), 100 U/ml sodium benzylpenicillin G (Sigma), 100 μg/ml streptomycin sulphate (Sigma), 5×10^−5M 2-mercaptoethanol (Sigma) and 20 mM HEPES pH7,2 (Sigma). All plates were incubated at 37° C. in a humidified atmosphere of 5% CO2/95% air. The cell proliferation in cultures was estimated from the incorporation of ^3H-Thymidine in triplicate wells 5 days after stimulation with antigen as described previously. Proliferation results are presented either as the mean CPM+/−SD of the triplicate samples, or as a stimulation index (SI), expressing the ratio of mean CPM in stimulated versus unstimulated control cultures. An S1>3 with CPM>1000 is interpreted as representing a positive response.
The experiments mentioned in Example 1.1 were repeated using blood from subjects suffering from autoimmune haemolytic anaemia.
These experiments can be carried out using other rhesus proteins, such as RhcE, Rhce, RhCe or RhCE protein. T-cells from RhD-negative subjects suffering AIHA were tested with the panel of ce peptides (Table 3).

[2] = tested on: PBMC from RhD alloimmunised donors; assay: Cell proliferation assay (3H-thymidine) of PBMC from RhD alloimmunised donors stimulated with RhD peptides; details: peptide 20 μg/ml, 5 days
Method: Five complete panels of 68 15-mer peptides, with 5 or 10 amino acid overlaps, were synthesized (Multiple Peptide Service, Cambridge Research Biochemicals, Cheshire, UK and Dept. Of Biochemistry, University of Bristol, UK), corresponding to the sequences of the 30 kD Rh proteins associated with expression of the RhD or RhcE/ce/Ce/CE blood group antigens respectively (Tables 1 to 5). An additional three peptide sequences is added to the panel of RhD peptides to account for the Ile to Met substitution described earlier (numbered from 69 to 71). The amino acid sequences for each of these proteins were deduced from cDNA analyses (FIG. 1). In order to ensure purity, each panel was synthesized by fluorenylmethoxycarbonyl chemistry on resin using a base-labile linker, rather than by conventional pin technology, and randomly selected peptides were screened for purity by HPLC and amino acid analysis.
Peripheral blood mononuclear cells (PBMC) from donors or patients were separated from fresh blood samples using Ficoll-Hypaque. The donors and patients had become alloimmunised with RhD-positive blood either through pregnancy, a blood transfusion or through immunization with the relevant blood.
as §1

[3] = tested on: PBMC from RhD-alloimmunised donors; assay: celELISA of cytokine production (IL-10, TGF-β1) by PBMC from RhD alloimmunised donors; details: for TGF-β1 production by PBMC: FIG. 3 and FIG. 11; for IL-10 production by PBMC: FIG. 3 and FIG. 10
Method: Cultured T-cells are stimulated with each of the epitopes given in Table 1 and after 5 days the responding cells were transferred to flat-bottomed microtitre plates (96-well Nunc-Immuno Maxisorp) coated with […] per well of monoclonal anti-cytokine capture antibody diluted in 0.05M alkaline carbonate coating buffer pH 9.6. Unbound capture antibody was removed by two washes with HBSS and non-specific binding potential blocked by incubation with 200 μl per well of phosphate buffered saline, pH 7.4 (PBS containing 3% BSA).
Five days after stimulation, lymphocyte cultures were mixed to resuspend the cells and duplicate 100 μl aliquots were transferred into wells coated with the respective capture antibody specific for IFN-γ, IL-10 or TGF-β. The plates coated with capture antibodies and layered by lymphocytes were then incubated for a further 24 hours at 37° C. in a humidified atmosphere of 5% CO2 and 95% air. After this incubation the PBMC were removed by four washes with 0.2% Tween/PBS. One hundred microlitre aliquots of the appropriate biotinylated monoclonal detection antibody in 0.2% BSA/PBS were then added to the wells and incubated at room temperature for 45 minutes.
After six washes with 0.5% Tween/PBS, 100 μl of 1:100,000 ExtrAvidin-alkaline phosphatase conjugate (Sigma) was then added to each of the wells and incubated at room temperature for 30 minutes. The ExtrAvidin conjugate was removed by eight washes with 0.2% Tween/PBS, and the plates developed using 100 μl per well of p-nitrophenyl phosphate (Sigma) 1.0 mg/ml in 0.05M carbonate alkaline buffer pH9.6. The absorbance at 405 nm was then measured using a Multiscan plate reader (Labsystems Basingstoke UK).
Cytokine secretion was measured by interpolation from a standard curve generated by incubating duplicate wells with doubling dilutions of recombinant human IFN-γ or IL-10 or TGF-β (Pharmingen). The standard curves were modelled by a smoothed cubic spline function applied to the absorbance reading and the cytokine concentrations after a quasilogarithmic transformation, where: quasiloge(z)=loge[z+{square root}[z^2+1]).
Using celELISA technique, the 68 RhD peptide panel was screened for the ability to induce IL-10 and TGF-β production for PBMC from a total of 19 samples from 12 different alloimmune donors. PMBC from 10 out of the 12 RhD-alloimmunised donors could produce IL-10 to at least one of the RhD peptides on at least one occasion, with a total of 194 significant IL-10 responses to the RhD peptides between all the donors. The RhD peptides that induced significant TGF-β or IL-10 and proliferative responses from PBMC in all the samples screened are summarised in FIGS. 10 and 11.

## AALILLFYFFTHYDA (Residue 22- 36 RhD; listed as Homo sapiens) [compound 3]
[1]
  proliferative T-cell response to RhD peptides: exhibited a proliferative response

## SAVLAGGVAVGTSCH (Residue 272-286 RhD; listed as Homo sapiens) [peptide 46]
[2]
  proliferative T-cell response to RhD peptides: most commonly targeted

## WLAMVLGLVAGLISV (Residue 292-306 RhD; listed as Homo sapiens) [peptide 48]
[3]
  TGF-β1 production by PBMC: commonly induce the production of TGF-β1; also recorded: induces TGF-β1 production in the absence of a proliferative response or the production of IFN-γ or IL-4

## FSLLGLLGEITYIVL (Residue 332-346 Rhce; listed as Homo sapiens) [compound 195]
[1]
  proliferative T-cell response to ce peptides: exhibited a proliferative response

## GKVNLAQLVVMVLVE (Residue 132-146 RhD; listed as Homo sapiens) [compound 20]
[1]
  proliferative T-cell response to RhD peptides: exhibited a proliferative response

## LLTGLLLNLKIWKAP (Residue 382-396 RhD; listed as Homo sapiens) [compound 63]
[2]
  proliferative T-cell response to RhD peptides: most commonly targeted

## THYDASLEDQKGLVA (Residues 32-46 Rhce; listed as Homo sapiens) [compound 143]
[1]
  proliferative T-cell response to ce peptides: exhibited a proliferative response

## VTALGNLRMVISNIF (Residue 147 - 161 RhD; listed as Homo sapiens) [compound 22]
[2]
  proliferative T-cell response to RhD peptides: most commonly targeted

## HSWSSVAFNLFMLAL (Residue 72-86 RhD; listed as Homo sapiens) [compound 10]
[2]
  proliferative T-cell response to RhD peptides: most commonly targeted

## GLISVGGAKYLPGCC (Residue 302-316 RhD; listed as Homo sapiens) [compound 50]
[1]
  proliferative T-cell response to RhD peptides: exhibited a proliferative response

## GTSCHLIPSPWLAMV (Residue 282-296 Rhce; listed as Homo sapiens) [compound 186]
[1]
  proliferative T-cell response to ce peptides: exhibited a proliferative response

## GTSCHLIPSPWLAMV (Residue 282-296 RhD; listed as Homo sapiens) [compound 47]
[1]
  proliferative T-cell response to RhD peptides: exhibited a proliferative response

## KGLVASYQVGQDLTV (Residue 42-56 Rhce; listed as Homo sapiens) [compound 144]
[1]
  proliferative T-cell response to ce peptides: exhibited a proliferative response

## LAIVIALTSGLLTGL (Residue 372-386 RhD; listed as Homo sapiens) [compound 62]
[1]
  proliferative T-cell response to RhD peptides: exhibited a proliferative response

## FSLLGLLGEIIYIVL (Residue 332-346 RhD; listed as Homo sapiens) [compound 56]
[3]
  IL-10 production by PBMC: commonly induce the production of IL-10
[2]
  proliferative T-cell response to RhD peptides: most commonly targeted

## LGLVAGLISVGGAKY (Residue 297-311 RhD; listed as Homo sapiens) [compound 49]
[3]
  IL-10 production by PBMC: commonly induce the production of IL-10; also recorded: induce IL-10 production in the absence of a proliferative response or the production of IFN-γ or IL-4

## CLPLWALTLEAALIL (Residues 12-26 RhD; listed as Homo sapiens) [peptide 2]
[1]
  proliferative T-cell response to RhD peptides: exhibited a proliferative response
[2]
  proliferative T-cell response to RhD peptides: most commonly targeted

## TVAWCLPKPLPKGTE (Residue 182-196 Rhce; listed as Homo sapiens) [compound 168]
[1]
  proliferative T-cell response to ce peptides: exhibited a proliferative response

## ATIPSLSAMLGALFL (Residue 202-216 RhD; listed as Homo sapiens) [compound 33]
[1]
  proliferative T-cell response to RhD peptides: exhibited a proliferative response

## LGFLTSSFRRHSWSS (Residue 62-76 RhD; listed as Homo sapiens) [compound 8]
[3]
  TGF-β1 production by PBMC: commonly induce the production of TGF-β1
